Test results taken from US6313376A, “Maize aquaporins and uses thereof” (Pioneer Hi-Bred International, Inc., priority 1999, dated 2001).
One block for each molecule: values may come before it.

How the values were obtained:
ZmPIP2 = test: Osmotic water permeability assay, water channel activity of ZmPIP2 in the presence of cAMP agonists or phosphatase inhibitor; type: cell-based, Zea mays; conditions: cAMP agonists to activate cellular PKA, or protein phosphatase inhibitor
Experimental: (§1) Xenopus laevis oocytes were prepared and injected as previously described (Daniels et al., 1996). The osmotic water permeability assay was conducted as previously described (Weig et al., 1997).
A number of studies indicate that the activity of aquaporins may be regulated by phosphorylation. For instance, -TIP, a seed specific vacuolar protein from bean, is phosphorylated in vivo and in vitro and the phosphorylation regulates its water channel activity in Xenopus oocytes (Maurel et al., 1993). […] Water channel activity of ZmPIP2 was tested in the presence of (1) cAMP agonists (8-bromoadenosine 3', 5'-cyclic monophosphate, forksolin and 3-isobutyl-1-methylxanthine) to increase the cytosolic cAMP concentration and activate cellular PKA and (2) protein phosphatase inhibitor okadeic acid.

ZmPIP3 = biological target: T1, ZmPIP3 (Zea mays, UniProt Q9XF58); test: Osmotic water permeability assay (Xenopus oocyte swelling), inhibition of water transport through ZmPIP3; type: cell-based
T1 construct: plasma membrane swelling assay; insert borders and tag not described
T1 sequence (Q9XF58 1-284): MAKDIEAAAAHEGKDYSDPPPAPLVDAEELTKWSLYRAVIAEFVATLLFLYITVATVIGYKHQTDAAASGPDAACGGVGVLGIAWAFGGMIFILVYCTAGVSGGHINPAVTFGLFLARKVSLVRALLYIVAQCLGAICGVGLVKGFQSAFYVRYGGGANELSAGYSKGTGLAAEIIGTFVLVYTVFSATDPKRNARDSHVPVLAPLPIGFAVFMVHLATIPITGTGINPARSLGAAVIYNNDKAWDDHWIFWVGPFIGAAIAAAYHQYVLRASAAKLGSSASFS
Experimental: as §1
(§2) The biological activity of aquaporins is usually determined with Xenopus oocyte swelling assays (Maurel et al, 1993). MIP cRNA is injected into oocytes and after a 3-day incubation the oocytes are moved to a hypotonic medium. If water channel proteins are present in the plasma membrane, the oocytes swell and burst much faster than the control oocytes. […] The osmotic water permeability coefficient (Pf) of the oocyte membrane increased 8-fold over the control. Mercurial compounds are characteristic inhibitors of many water-channel proteins. Water transport through ZmPIP3 is inhibited 50% by 1 mM mercuric chloride and this inhibition is reversed by the reducing agent -mercaptoethanol.

Xenopus laevis oocytes [1] = test: Osmotic water permeability assay of cRNA-injected oocytes (Pf of the oocyte membrane); type: cell-based; conditions: cRNA-injected oocytes moved to hypotonic medium after 3-day incubation; versus control oocytes
Experimental: as §1, §2

Xenopus laevis oocytes [2] = test: Radiolabeled solute uptake assay in ZmPIP2-expressing oocytes; type: cell-based; conditions: 1 mM solute, 21° C., 0, 15 and 30 min
Experimental: Two to three days after water or mRNA injection, groups of 5 oocytes were incubated at 21° C. in […] of Barth's solution containing 0.1 to 0.5 MBq/ml of the radiolabeled solutes ([^14 C]glycerol, […]; [^14 C]choline, 2.0 GBq/mmol; [^14 C]ethanol, 0.144 GBq/mmol; [^14 C]urea, 2.0 GBq/mmol or [^14 C]labeled amino acid mixture without methionine, 1.85 MBq/ml). Nonradioactive solutes were added to give a 1 mM final concentration. After 0, 15 and 30 min, the oocytes were washed rapidly three times in ice-cold Barth's solution, and individual oocytes were dissolved in 5% SDS for scintillation counting.
Although many MIP proteins are aquaporin, some of them can transport small neutral solutes, exclusively or in addition to water. For instance, tobacco NtTIPa and NtAQP1 transport glycerol in addition to water (Gerbeau et al., 1999), whilst the bacterial GIpF is a selective glycerol facilitator. Transport essays were performed in ZmPIP2-expressing oocytes with a series of labeled solutes including glycerol, urea, ethanol, choline and amino acids.

Molecule: CC(C)Cn1c(=O)n(C)c(=O)c2[nH]cnc21 [3-isobutyl-1-methylxanthine]
effect on Pf of ZmPIP2-expressing oocytes (ZmPIP2): None of these treatments affected the Pf

Molecule: Nc1ncnc2c1nc(Br)n2[C@@H]1O[C@@H]2COP(=O)(O)O[C@H]2[C@H]1O [8-bromoadenosine 3', 5'-cyclic monophosphate]
effect on Pf of ZmPIP2-expressing oocytes (ZmPIP2): None of these treatments affected the Pf

reversal of mercuric chloride inhibition of ZmPIP3 water transport (ZmPIP3; reducing agent added after 1 mM mercuric chloride inhibition): reversed
Molecule: OCCS [-mercaptoethanol]

Molecule: C=C[C@@]1(C)CC(=O)[C@]2(O)[C@@]3(C)[C@@H](O)CCC(C)(C)[C@@H]3[C@H](O)[C@H](OC(C)=O)[C@@]2(C)O1 [forksolin]
effect on Pf of ZmPIP2-expressing oocytes (ZmPIP2): None of these treatments affected the Pf

Molecule: [Cl][Hg][Cl] [mercuric chloride]
inhibition of water transport through ZmPIP3 (ZmPIP3; 1 mM mercuric chloride, ZmPIP3 cRNA-injected Xenopus oocytes): 50%

Molecule: okadeic acid
effect on Pf of ZmPIP2-expressing oocytes (ZmPIP2): None of these treatments affected the Pf

B1: AtRD28: plasma membrane AtRD28 aquaporin (Daniels et al., 1994), positive control in oocytes (protein, UniProt P30302 1-285, looked up)
Aquaporin PIP2-3: MAKDVEGPDGFQTRDYEDPPPTPFFDAEELTKWSLYRAVIAEFVATLLFLYVTVLTVIGYKIQSDTKAGGVDCGGVGILGIAWAFGGMIFILVYCTAGISGGHINPAVTFGLFLARKVSLIRAVLYMVAQCLGAICGVGFVKAFQSSHYVNYGGGANFLADGYNTGTGLAAEIIGTFVLVYTVFSATDPKRNARDSHVPVLAPLPIGFAVFMVHLATIPITGTGINPARSFGAAVIFNKSKPWDDHWIFWVGPFIGATIAAFYHQFVLRASGSKSLGSFRSAANV
increase of osmotic water permeability coefficient (Pf) of the oocyte membrane over the control (Xenopus laevis oocytes [1]): 8 fold

B2: ZmPIP3: maize aquaporin; polypeptide of SEQ ID NO: 4, expressed from cRNA in Xenopus oocytes (protein)
chain: MAKDIEAAAAHEGKDYSDPPPAPLVDAEELTKWSLYRAVIAEFVATLLFLYITVATVIGYKHQTDAAASGPDAACGGVGVLGIAWAFGGMIFILVYCTAGVSGGHINPAVTFGLFLARKVSLVRALLYIVAQCLGAICGVGLVKGFQSAFYVRYGGGANELSAGYSKGTGLAAEIIGTFVLVYTVFSATDPKRNARDSHVPVLAPLPIGFAVFMVHLATIPITGTGINPARSLGAAVIYNNDKAWDDHWIFWVGPFIGAAIAAAYHQYVLRASAAKLGSSASFS
increase of osmotic water permeability coefficient (Pf) of the oocyte membrane over the control (Xenopus laevis oocytes [1]): 8 fold

B3: ZmPIP2: maize aquaporin designation; polypeptide of SEQ ID NO: 2, expressed from cRNA in Xenopus oocytes (protein)
chain: MEGKEEDVRLGANKFSERQPIGTAAQGAADDKDYKEPPPAPLFEPGELKSWSFYRAGIAEFVATFLFLYITILTVMGVSKSTSKCATVGIQGIAWSFGGMIFALVYCTAGISGGHINPAVTFGLFLARKLSLTRALFYIIMQCLGAICGAGVVKGFQQGLYMGNGGGANVVAPGYTKGDGLGAEIVGTFILVYTVFSATDAKRNARDSHVPILAPLPIGFAVFLVHLATIPITGTGINPARSLGAAIIYNRDHAWNDHWIFWVGPFIGAALAAIYHQVIIRAIPFKSR
transport of labeled solutes (glycerol, urea, ethanol, choline, amino acids) versus water-injected oocytes (Xenopus laevis oocytes [2]): None of the solutes tested were preferentially transported
